From patent US9708325B2, “Sulfonimidoylpurinone compounds and derivatives for the treatment and prophylaxis of virus infection” (Hoffmann-La Roche Inc., priority 2015, dated 2017)
In brackets after ≈: the same amount, converted by molar mass. Read-outs that look alike come from different tables or passages of the source. Marks after values point to notes of the source that are not given here.

Legend:
human TLR8 = human TLR8 (Homo sapiens (Human), UniProt Q9NR97); assay: HEK-Blue-hTLR8 cells assay and selectivity index; type: cell-based; settings: for Selective index: EC50(TLR8) value/EC50(TLR7) value
human TLR8, sequence (Q9NR97 27-1041): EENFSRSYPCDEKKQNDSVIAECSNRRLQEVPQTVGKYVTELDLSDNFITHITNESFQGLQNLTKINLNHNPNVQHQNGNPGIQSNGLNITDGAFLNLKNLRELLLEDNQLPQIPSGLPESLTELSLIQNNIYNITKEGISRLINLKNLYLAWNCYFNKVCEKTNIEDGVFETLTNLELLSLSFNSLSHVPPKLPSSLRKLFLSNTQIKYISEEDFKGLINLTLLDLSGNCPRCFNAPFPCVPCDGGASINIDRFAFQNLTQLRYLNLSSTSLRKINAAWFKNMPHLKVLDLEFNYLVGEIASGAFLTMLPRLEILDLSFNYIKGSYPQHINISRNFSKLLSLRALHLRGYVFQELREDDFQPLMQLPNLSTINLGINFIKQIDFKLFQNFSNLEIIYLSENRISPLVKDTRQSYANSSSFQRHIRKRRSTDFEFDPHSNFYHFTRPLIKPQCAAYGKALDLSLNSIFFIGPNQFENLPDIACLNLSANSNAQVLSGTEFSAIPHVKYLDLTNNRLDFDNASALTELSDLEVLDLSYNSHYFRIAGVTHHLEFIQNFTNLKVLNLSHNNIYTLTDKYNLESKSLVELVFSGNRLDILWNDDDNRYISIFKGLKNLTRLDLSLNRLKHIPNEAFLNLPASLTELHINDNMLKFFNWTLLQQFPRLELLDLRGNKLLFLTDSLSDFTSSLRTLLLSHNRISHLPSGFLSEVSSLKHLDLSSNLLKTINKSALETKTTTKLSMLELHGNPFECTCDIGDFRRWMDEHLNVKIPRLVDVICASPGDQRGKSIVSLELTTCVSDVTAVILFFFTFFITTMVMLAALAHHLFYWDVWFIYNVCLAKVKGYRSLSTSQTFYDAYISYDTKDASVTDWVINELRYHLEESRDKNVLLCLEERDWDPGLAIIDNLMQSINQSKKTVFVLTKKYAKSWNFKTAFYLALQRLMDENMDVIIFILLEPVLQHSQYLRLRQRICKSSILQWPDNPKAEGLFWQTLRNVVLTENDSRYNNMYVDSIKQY
Procedure: (§1) A stable HEK-Blue-hTLR8 cell line was purchased from InvivoGen (Cat.#: HEK-Blue-htlr8, San Diego, Calif., USA). These cells were designed for studying the stimulation of human TLR8 by monitoring the activation of NF-κB. […] Therefore the reporter expression was regulated by the NF-κB promoter upon stimulation of human TLR8 for 20 hrs. The cell culture supernatant SEAP reporter activity was determined using QUANTI-Blue™ kit (Cat.#: rep-qb1, Invivogen, San Diego, Ca, USA) at a wavelength of 640 nm, a detection medium that turns purple or blue in the presence of alkaline phosphatase.
(§2) HEK-Blue-hTLR8 cells were incubated at a density of 250,000˜450,000 cells/mL in a volume of 180 μL in a 96-well plate in Dulbecco's Modified Eagle's medium (DMEM) containing 4.5 g/L glucose, 50 U/mL penicillin, […], […], 2 mM L-glutamine, 10% (V/V) heat-inactivated fetal bovine serum for 24 hrs. Then the HEK-Blue-hTLR8 cells were incubated with addition of 20 μL test compound in a serial dilution in the presence of final DMSO at 1% and perform incubation under 37° C. in a CO2 incubator for 20 hrs. Then 20 μL of the supernatant from each well was incubated with 180 μL Quanti-blue substrate solution at 37° C. for 2 hours and the absorbance was read at 620˜655 nm using a spectrophotometer. The signalling pathway that TLR8 activation leads to downstream NF-κB activation has been widely accepted, and therefore similar reporter assay was also widely used for evaluating TLR8 agonist (Tsuneyasu Kaisho and Takashi Tanaka, Trends in Immunology, Volume 29, Issue 7, July 2008, […]; Hiroaki Hemmi et al, Nature Immunology 3, 196-200 (2002)).
The ratio of TLR8 agonism activity compared to TLR7 agonism activity was defined as the selectivity index (EC50 (TLR8) value/EC50(TLR7) value) and calculated accordingly.

human TLR7 = human TLR7 (Homo sapiens (Human), UniProt Q9NYK1); assay: HEK-Blue-hTLR7 cells assay (SEAP reporter); type: cell-based; settings: 20 hrs
human TLR7, sequence (Q9NYK1 27-1049): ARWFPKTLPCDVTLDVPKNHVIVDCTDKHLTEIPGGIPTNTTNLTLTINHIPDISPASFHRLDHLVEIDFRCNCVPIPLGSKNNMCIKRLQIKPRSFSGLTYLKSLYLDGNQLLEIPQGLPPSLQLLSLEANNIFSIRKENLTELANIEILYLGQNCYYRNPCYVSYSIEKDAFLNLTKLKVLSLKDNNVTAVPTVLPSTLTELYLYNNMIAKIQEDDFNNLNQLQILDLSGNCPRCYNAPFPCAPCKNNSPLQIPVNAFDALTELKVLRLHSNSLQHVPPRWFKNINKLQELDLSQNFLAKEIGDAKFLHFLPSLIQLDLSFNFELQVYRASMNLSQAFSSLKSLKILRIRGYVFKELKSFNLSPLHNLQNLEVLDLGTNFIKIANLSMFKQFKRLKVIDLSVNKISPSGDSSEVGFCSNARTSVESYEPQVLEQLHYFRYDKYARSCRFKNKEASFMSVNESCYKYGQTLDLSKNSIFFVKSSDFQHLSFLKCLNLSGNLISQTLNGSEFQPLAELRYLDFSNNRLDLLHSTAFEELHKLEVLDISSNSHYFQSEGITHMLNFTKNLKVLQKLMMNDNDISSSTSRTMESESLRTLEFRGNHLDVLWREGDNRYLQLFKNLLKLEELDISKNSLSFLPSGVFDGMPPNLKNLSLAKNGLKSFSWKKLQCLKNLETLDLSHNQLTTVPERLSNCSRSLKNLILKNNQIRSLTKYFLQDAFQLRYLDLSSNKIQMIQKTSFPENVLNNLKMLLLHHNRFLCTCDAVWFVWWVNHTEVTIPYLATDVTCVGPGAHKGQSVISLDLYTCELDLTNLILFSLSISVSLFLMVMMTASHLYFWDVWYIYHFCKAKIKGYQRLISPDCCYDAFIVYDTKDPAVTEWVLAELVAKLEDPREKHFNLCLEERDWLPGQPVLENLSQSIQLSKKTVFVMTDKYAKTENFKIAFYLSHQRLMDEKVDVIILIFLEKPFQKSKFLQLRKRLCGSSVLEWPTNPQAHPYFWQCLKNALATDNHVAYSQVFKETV
Procedure: as §1, with “HEK-Blue-hTLR7” for “HEK-Blue-hTLR8”, “hkb-htlr7,” for “HEK-Blue-htlr8,”, “TLR7” for “TLR8”
as §2, with “HEK-Blue-hTLR7 cells” for “HEK-Blue-hTLR8 cells”, “the HEK-Blue-hTLR-7” for “the HEK-Blue-hTLR8”, “2 hrs” for “2 hours”, “that TLR7” for “that TLR8”, “evaluating TLR7” for “evaluating TLR8”

LYSA solubility = type: physicochemical; settings: for solubility thermodynamic: 0.05 M phosphate buffer, pH 6.5, aqueous buffer, thermodynamic from solid; for LYSA: 0.05 M phosphate buffer (pH 6.5)
Procedure: LYSA solubility assay is used to determine the aqueous solubility of a compound. Samples were prepared in duplicate from 10 mM DMSO stock solution. […] After one night, the solutions were filtered using a microtiter filter plate. Then the filtrate and its 1/10 dilution were analyzed by HPLC-UV.

[1] = Metabolic stability in human liver microsomes; settings: 1 μM test compound, 0.5 mg/mL microsomal protein; 6.15 mL/min/kg is the limitation of assay sensitivity
Procedure: The human microsomal stability assay is used for early assessment of metabolic stability of a test compound in human liver microsomes.
Human liver microsomes (Cat. NO.: 452117, Corning, USA; Cat. NO.: H2610, Xenotech, USA) were preincubated with test compound for 10 minutes at 37° C. in 100 mM potassium phosphate buffer, pH 7.4. The reactions were initiated by adding NADPH regenerating system. The final incubation mixtures contained 1 μM test compound, 0.5 mg/mL liver microsomal protein, 1 mM MgCL2, 1 mM NADP, 1 unit/mL isocitric dehydrogenase and 6 mM isocitric acid in 100 mM potassium phosphate buffer, pH 7.4. After incubation times of 0, 3, 6, 9, 15 and 30 minutes at 37° C., 300 μL of cold ACN (including internal standard) was added to 100 μL incubation mixture to terminate the reaction. Following precipitation and centrifugation, the amount of compound remaining in the samples were determined by LC-MS/MS. Controls of no NADPH regenerating system at zero and 30 minutes were also prepared and analyzed.

[2] = read-out: HEK-Blue-hTLR7 (EC50 (μM))

Row | EC50 (human TLR7; [2]) [µM] | solubility thermodynamic (LYSA solubility) [µg/mL] | Human Liver Microsome Clearance [1] [mL/min/kg] | Compound | other results
1 | 3.14 |  |  | CNC(=O)c1nc(N)c2[nH]c(=O)n(Cc3ccccc3)c2n1 [Example P-5, reference compound] | EC50 (human TLR8; HEK-Blue-hTLR8 cells, SEAP reporter, 20 hrs, read-out: HEK Blue hTLR-8 EC50): > 1000 µM
2 | 0.023 |  | <6.15 | CCCS(=N)(=O)c1nc(N)c2[nH]c(=O)n(Cc3ccc(S(C)(=O)=O)cc3)c2n1 (stereo not drawn) [Example 37, 6-Amino-9-[(4-methylsulfonylphenyl)methyl]-2-(propylsulfonimidoyl)-7H-purin-8-one] | 
3 |  | 90 (≈ 257 µM) | <6.15 | CCS(=N)(=O)c1nc(N)c2[nH]c(=O)n(Cc3ccc(F)cc3)c2n1 (single isomer, unassigned) [Example 72-A, 6-Amino-2-(ethylsulfonimidoyl)-9-[(4-fluorophenyl)methyl]-7H-purin-8-one] | 
4 | 0.24 | > 465 | <6.15 | CCCS(=N)(=O)c1nc(N)c2[nH]c(=O)n(Cc3cncnc3)c2n1 (stereo not drawn) [Example 43, 6-Amino-2-(propylsulfonimidoyl)-9-(pyrimidin-5-ylmethyl)-7H-purin-8-one] | 
5 | 0.04 |  | <6.15 | CCCS(=N)(=O)c1nc(N)c2[nH]c(=O)n(Cc3ccc(F)cc3F)c2n1 (stereo not drawn) [Example 31, 6-Amino-9-[(2,4-difluorophenyl)methyl]-2-(propylsulfonimidoyl)-7H-purin-8-one] | 
6 | 0.32 | 40 (≈ 111 µM) | <6.15 | CCCCS(=N)(=O)c1nc(N)c2[nH]c(=O)n(Cc3ccccc3)c2n1 (stereo not drawn) [Example 5, 6-Amino-9-benzyl-2-(butylsulfonimidoyl)-7H-purin-8-one] | 
7 |  |  | <6.15 | CCS(=N)(=O)c1nc(N)c2[nH]c(=O)n(Cc3ccc(F)cc3)c2n1 (single isomer, unassigned) [Example 72-B, 6-Amino-2-(ethylsulfonimidoyl)-9-[(4-fluorophenyl)methyl]-7H-purin-8-one] | LYSA (LYSA solubility): 115 µg/mL
8 | 0.2 | 29 (≈ 87.2 µM) | <6.15 | CCS(=N)(=O)c1nc(N)c2[nH]c(=O)n(Cc3ccccc3)c2n1 (stereo not drawn) [Example 2, 6-Amino-9-benzyl-2-(ethylsulfonimidoyl)-7H-purin-8-one] | 

More lines, now with the values behind:

Row | Compound | EC50 (human TLR7; [2]) [µM] | solubility thermodynamic (LYSA solubility) [µg/mL] | Human Liver Microsome Clearance [1] [mL/min/kg] | other results
9 | CCCS(=N)(=O)c1nc(N)c2[nH]c(=O)n(Cc3ccc(C(N)=O)cc3)c2n1 (stereo not drawn) [Example 33, 4-[[6-amino-8-oxo-2-(propylsulfonimidoyl)-7H-purin-9-yl]methyl]benzamide] | 0.066 | 79 (≈ 203 µM) | <6.15 | 
10 | CS(=N)(=O)c1nc(N)c2[nH]c(=O)n(Cc3ccncc3)c2n1 (stereo not drawn) [Example 20, 6-Amino-2-(methylsulfonimidoyl)-9-(4-pyridylmethyl)-7H-purin-8-one] | 0.26 |  |  | EC50 (human TLR8): > 1000 µM; Selective index (human TLR8): >3846
11 | CS(=N)(=O)c1nc(N)c2[nH]c(=O)n(Cc3cccnc3)c2n1 (stereo not drawn) [Example 16, 6-Amino-2-(methylsulfonimidoyl)-9-(3-pyridylmethyl)-7H-purin-8-one] | 0.22 |  |  | EC50 (human TLR8): > 1000 µM; Selective index (human TLR8): >4546
12 | CCS(=N)(=O)c1nc(N)c2[nH]c(=O)n(Cc3ccc(C)cc3)c2n1 (single isomer, unassigned) [Example 71-B, 6-Amino-2-(ethylsulfonimidoyl)-9-(p-tolylmethyl)-7H-purin-8-one] |  |  | <6.15 | LYSA (LYSA solubility): 13 µg/mL
13 | CCS(=N)(=O)c1nc(N)c2[nH]c(=O)n(Cc3ccc(F)cc3)c2n1 (stereo not drawn) [Example 72, 6-Amino-2-(ethylsulfonimidoyl)-9-[(4-fluorophenyl)methyl]-7H-purin-8-one] |  | 152 (≈ 434 µM) | <6.15 | 
14 | CCCS(=N)(=O)c1nc(N)c2[nH]c(=O)n(Cc3ccc(C(=O)NCCOC)cc3)c2n1 (stereo not drawn) [Example 40, 4-[[6-Amino-8-oxo-2-(propylsulfonimidoyl)-7H-purin-9-yl]methyl]-N-(2-methoxyethyl)benzamide] | 0.15 | 168 (≈ 375 µM) | <6.15 | 
15 | CCCS(=N)(=O)c1nc(N)c2[nH]c(=O)n(Cc3cnc(C)nc3)c2n1 (stereo not drawn) [Example 44, 6-Amino-9-[(2-methylpyrimidin-5-yl)methyl]-2-(propylsulfonimidoyl)-7H-purin-8-one] | 0.136 | 357 (≈ 985 µM) | <6.15 | 
16 | COCCS(=N)(=O)c1nc(N)c2[nH]c(=O)n(Cc3ccccc3)c2n1 (stereo not drawn) [Example 3, 6-Amino-9-benzyl-2-(2-methoxyethylsulfonimidoyl)-7H-purin-8-one] | 0.33 | 300 (≈ 828 µM) | <6.15 | 
17 | CCCS(=N)(=O)c1nc(N)c2[nH]c(=O)n(Cc3ccc(C#N)cc3)c2n1 (stereo not drawn) [Example 32, 4-[[6-Amino-8-oxo-2-(propylsulfonimidoyl)-7H-purin-9-yl]methyl]benzonitrile] |  | 18 (≈ 48.5 µM) | <6.15 | EC50 (human TLR7; HEK-Blue-hTLR7 (EC50 (μM))): 0.054 µM
18 | CS(=N)(=O)c1nc(N)c2[nH]c(=O)n(Cc3ccccc3)c2n1 (single isomer, unassigned) [Example 1-A, 6-Amino-9-benzyl-2-(methylsulfonimidoyl)-7H-purin-8-one] |  |  | <6.15 | LYSA (LYSA solubility): 85 µg/mL
19 | CS(=N)(=O)c1nc(N)c2[nH]c(=O)n(Cc3ccccc3)c2n1 (stereo not drawn) [Example 1, 6-Amino-9-benzyl-2-(methylsulfonimidoyl)-7H-purin-8-one] | 0.3 |  |  | Human Liver Microsome Clearance (mL/min/kg) [1]: <6.15* mL/min/kg
20 | COCCS(=N)(=O)c1nc(N)c2[nH]c(=O)n(Cc3ccccc3)c2n1 (single isomer, unassigned) [Example 3-A, 6-Amino-9-benzyl-2-(2-methoxyethylsulfonimidoyl)-7H-purin-8-one] |  |  | <6.15 | 
21 | CCCS(=N)(=O)c1nc(N)c2[nH]c(=O)n(Cc3ccnc(C)c3)c2n1 (stereo not drawn) [Example 35, 6-Amino-9-[(2-methyl-4-pyridyl)methyl]-2-(propylsulfonimidoyl)-7H-purin-8-one] | 0.12 |  | <6.15 | 
